Patent EP2669276A1 (Université de Strasbourg, priority 2012, dated 2013)

Tests used:
hNPFF1 = molecular target: T1, hNPFF1 (Homo sapiens, UniProt Q9GZQ6); assay: Receptor binding assay with [3H]-FFRFamide on CHO cell membranes expressing SF-hNPFFR1; conditions: [3H]-FFRF-NH2 radioligand, mean of at least two experiments; for Ki: read-out: Ki NPFF1
T1 construct: The cDNA encoding the full-length human NPFFR1 and human NPFFR2; expressed in transfected cells
Excerpt: (§1) The cDNA encoding the full-length human NPFFR1 and human NPFFR2 were subcloned into the pcDNA3 expression vector (Invitrogen, Cergy Pontoise, France) using standard molecular biology methods. A sequence encoding a signal sequence and a Flag epitope was fused to the 5' coding sequence of both hNPFFR1 and hNPFFR2 cDNA according to (Guan et al., 1992) resulting in a SF-hNPFFR1 and SF-hNPFFR2 constructs. These contructs were stably transfected into CHO cells.
(§2) Membranes from CHO cells stably expressing SF-hNPFFR1 or SF-hNPFFR2 were prepared as described (Becker et al., 1999). SF-hNPFFR1 or SF-hNPFFR2 membranes (10µg) were incubated for 30 min at 25 °C in a final volume of 0.5 ml containing 50 mM HEPES pH 7.4, 1 mM CaCl2, 1 mM MgCl2, 0.1% bovine serum albumin, 10 nM and 3 nM [^3H]-FFRFamide (CEA, Paris; specific activity, 13,6 Ci/mmol) for […], respectively and the ligands to be tested. Non-specific binding was determined in presence of 1 µM neuropeptide FF for SF-hNPFFR2 and 1 µM neuropeptide VF for SF -hNPFFR1. Typical total and nonspecific binding were 1200 and 200 dpm, respectively for SF-hNPFFR1 and SF-hNPFFR2. Incubation mixtures were rapidly filtered and washed with 50 mM HEPES pH 7.4, 1 mM CaCl2, 1 mM MgCl2, on 96 wells GF/B unifilter (Perkin Elmer). Unifilter plates where then dryied for 1hr at 65°C. Bound radioactivity was determined by scintillation counting with 30 µl of scintillation cocktail (O-scint, Perkin Elmer) per well on a Topcount scintillation apparatus (Perkin Elmer).

hNPFF2 = molecular target: T2, hNPFF2 (Homo sapiens, UniProt Q9Y5X5); assay: Receptor binding assay with [3H]-FFRFamide on CHO cell membranes expressing SF-hNPFFR2; conditions: [3H]-FFRF-NH2 radioligand, mean of at least two experiments; for Ki: read-out: Ki NPFF2
T2 construct: The cDNA encoding the full-length human NPFFR1 and human NPFFR2; expressed in transfected cells
T2 sequence (Q9Y5X5 whole entry): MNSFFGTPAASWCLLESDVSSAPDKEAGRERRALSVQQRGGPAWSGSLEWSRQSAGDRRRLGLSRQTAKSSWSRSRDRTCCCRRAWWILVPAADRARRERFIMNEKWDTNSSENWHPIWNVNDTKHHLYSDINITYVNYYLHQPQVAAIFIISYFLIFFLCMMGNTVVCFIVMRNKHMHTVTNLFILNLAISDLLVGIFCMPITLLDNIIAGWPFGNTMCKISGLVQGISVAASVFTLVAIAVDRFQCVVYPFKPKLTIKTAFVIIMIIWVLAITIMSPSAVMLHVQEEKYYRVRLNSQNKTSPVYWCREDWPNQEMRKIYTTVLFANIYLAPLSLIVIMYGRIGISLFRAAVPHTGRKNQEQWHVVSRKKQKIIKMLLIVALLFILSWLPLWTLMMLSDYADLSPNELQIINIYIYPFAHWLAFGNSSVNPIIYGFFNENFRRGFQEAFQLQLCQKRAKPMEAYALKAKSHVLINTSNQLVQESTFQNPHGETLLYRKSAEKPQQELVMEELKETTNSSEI
Excerpt: as §1, §2

T1 sequence (Q9GZQ6 whole entry): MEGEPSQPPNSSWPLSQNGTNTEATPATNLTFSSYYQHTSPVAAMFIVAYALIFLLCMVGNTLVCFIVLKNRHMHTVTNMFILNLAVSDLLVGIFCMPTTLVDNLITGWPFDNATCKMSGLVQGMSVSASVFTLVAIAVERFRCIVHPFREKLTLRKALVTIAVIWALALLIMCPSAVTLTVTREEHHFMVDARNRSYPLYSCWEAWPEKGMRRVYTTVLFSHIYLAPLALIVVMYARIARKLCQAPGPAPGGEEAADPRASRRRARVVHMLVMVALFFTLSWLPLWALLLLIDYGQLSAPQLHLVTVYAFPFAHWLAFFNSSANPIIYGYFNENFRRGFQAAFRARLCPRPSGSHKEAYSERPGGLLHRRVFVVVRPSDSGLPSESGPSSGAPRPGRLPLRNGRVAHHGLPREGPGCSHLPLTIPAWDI

SMILES | Ki (hNPFF1) | Ki (hNPFF2) | inhibition at 0.5 µM (hNPFF1) | inhibition at 5 µM (hNPFF1) | inhibition at 0.5 µM (hNPFF2) | inhibition at 5 µM (hNPFF2)
O=C(N[C@@H](CCCNCc1ccccc1)C(=O)NCCc1ccccc1)c1ccccc1-c1ccccc1 [Compound 1, (2S)-5-(benzylamino)-N-(2-phenylethyl)-2-[(2-phenylphenyl)formamido]pentanamide] | 240 ± 38 nM | 2300 ± 66 nM |  |  |  | 
O=C(N[C@H](CCCNCc1ccccc1)C(=O)NCCc1ccccc1)c1ccccc1-c1ccccc1 [Compound 2, (2R)-5-(benzylamino)-N-(2-phenylethyl)-2-[(2-phenylphenyl)formamido]pentanamide] | 480 ± 33 nM | 910 ± 94 nM |  |  |  | 
O=C(N[C@@H](CCCNCCc1ccccc1)C(=O)NCCc1ccccc1)c1ccccc1-c1ccccc1 [Compound 3, (2S)-N-(2-phenylethyl)-5-[(2-phenylethyl)amino]-2-[(2-phenylphenyl)formamido]pentanamide] |  |  | 29 ± 2% | 61 ± 1% | 15 ± 15% | 24 ± 6%
CC(C)CNCCC[C@H](NC(=O)c1ccccc1-c1ccccc1)C(=O)NCCc1ccccc1 [Compound 4, (2S)-5-[(2-methylpropyl)amino]-N-(2-phenylethyl)-2-[(2-phenylphenyl)formamido]pentanamide] |  |  | 14 ± 1% | 23% | 2 ± 6% | 7 ± 15%
CN(CCc1ccccc1)C(=O)[C@H](CCCNCc1ccccc1)NC(=O)c1ccccc1-c1ccccc1 [Compound 5, (2S)-5-(benzylamino)-N-methyl-N-(2-phenylethyl)-2-[(2-phenylphenyl)formamido]pentanamide] | 56 ± 11 nM | 1300 ± 590 nM |  |  |  | 
O=C(N[C@@H](CCCCNCc1ccccc1)C(=O)NCCc1ccccc1)c1ccccc1-c1ccccc1 [Compound 6, (2S)-6-(benzylamino)-N-(2-phenylethyl)-2-[(2-phenylphenyl)formamido]hexanamide] | 210 ± 39 nM | 720 ± 59 nM |  |  |  | 
O=C(N[C@H](CCCCNCc1ccccc1)C(=O)NCCc1ccccc1)c1ccccc1-c1ccccc1 [Compound 7, (2R)-6-(benzylamino)-N-(2-phenylethyl)-2-[(2-phenylphenyl)formamido]hexanamide] | 22 ± 4 nM | 605 ± 180 nM |  |  |  | 
COc1ccccc1CNCCC[C@H](NC(=O)c1ccccc1-c1ccccc1)C(=O)NCCc1ccccc1 [Compound 8, (2S)-5-{[(2-methoxyphenyl)methyl]amino}-N-(2-phenylethyl)-2-[(2-phenylphenyl)formamido]pentanamide] | 23 ± 4 nM | 103 ± 44 nM |  |  |  | 
COc1cccc(CNCCC[C@H](NC(=O)c2ccccc2-c2ccccc2)C(=O)NCCc2ccccc2)c1 [Compound 9, (2S)-5-{[(3-methoxyphenyl)methyl]amino}-N-(2-phenylethyl)-2-[(2-phenylphenyl)formamido]pentanamide] |  |  | 21 ± 4% | 60 ± 3% | 9 ± 1% | 45%
COc1ccc(CNCCC[C@H](NC(=O)c2ccccc2-c2ccccc2)C(=O)NCCc2ccccc2)cc1 [Compound 10, (2S)-5-{[(4-methoxyphenyl)methyl]amino}-N-(2-phenylethyl)-2-[(2-phenylphenyl)formamido]pentanamide] | 30 ± 2 nM |  |  |  | 11 ± 20% | 40 ± 2%
O=C(N[C@@H](CCCNC1CCCCC1)C(=O)NCCc1ccccc1)c1ccccc1-c1ccccc1 [Compound 11, (2S)-5-(cyclohexylamino)-N-(2-phenylethyl)-2-[(2-phenylphenyl)formamido]pentanamide] |  |  | 49 ± 37% | 37 ± 1% | 8 ± 3% | 26 ± 8%
O=C(N[C@@H](CCCNCc1ccccc1Cl)C(=O)NCCc1ccccc1)c1ccccc1-c1ccccc1 [Compound 12, (2S)-5-{[(2-chlorophenyl)methyl]amino}-N-(2-phenylethyl)-2-[(2-phenylphenyl)formamido]pentanamide] |  |  | 32 ± 1% | 74 ± 2% | 25 ± 5% | 64 ± 3%
